Test results taken from patent US12180187B2, “1-phenyl-5-azinylpyrazolyl-3-oxyalkyl acids and their use for controlling unwanted plant growth” (BAYER AKTIENGESELLSCHAFT, priority 2019, dated 2024).

Experiments:
[1] = test system: SETVI; assay: Pre-emergence action at 320 g/ha against SETVI; type: in vivo, Setaria viridis; details: visual scoring after about 3 weeks vs untreated controls
Procedure, shortened: (§1)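 Weed seeds sown in pots and covered with soil; compounds formulated as WP or EC were sprayed onto the soil surface as aqueous suspension or emulsion with 0.5% additive at 600 l/ha water. Pots kept in greenhouse; activity scored visually after about 3 weeks versus untreated controls (100% = plants dead, 0% = like control).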

[2] = test system: STEME; assay: Pre-emergence action against STEME, 1280 g/ha; type: in vivo, Stellaria media; details: scored visually after about 3 weeks vs untreated controls (100% = plants have died)
Procedure, shortened: (§2)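 Greenhouse pre-emergence test on sown seeds in sandy loam; soil-surface spray of formulated compound with 0.5% additive at 600 L/ha water. Scored visually, % vs untreated, after about 3 weeks.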

[3] = test system: ECHCG; assay: Pre-emergence action against ECHCG, 1280 g/ha; type: in vivo, Echinochloa crus-galli; details: visual scoring after about 3 weeks vs untreated controls, 100% = plants have died, 0% = like control plants
Procedure, shortened: as §2

[4] = test system: SETVI; assay: Pre-emergence action against SETVI, 1280 g/ha; type: in vivo, Setaria viridis; details: visual scoring after about 3 weeks vs untreated controls, 100% = plants have died, 0% = like control plants
Procedure, shortened: as §2

[5] = test system: POLCO; assay: Pre-emergence action at 320 g/ha against POLCO; type: in vivo, Fallopia convolvulus (Polygonum convolvulus); details: visual scoring after about 3 weeks vs untreated controls
Procedure, shortened: as §1

[6] = test system: MATIN; assay: Pre-emergence action at 320 g/ha against MATIN; type: in vivo, Tripleurospermum inodorum (Matricaria inodora); details: visual scoring after about 3 weeks vs untreated controls
Procedure, shortened: as §1

[7] = test system: DIGSA; assay: Pre-emergence action at 320 g/ha against DIGSA; type: in vivo, Digitaria sanguinalis; details: visual scoring after about 3 weeks vs untreated controls
Procedure, shortened: as §1

[8] = test system: ALOMY; assay: Pre-emergence action at 320 g/ha against ALOMY; type: in vivo, Alopecurus myosuroides; details: scored visually after about 3 weeks vs untreated controls (100% = plants have died)
Procedure, shortened: as §1

[9] = test system: MATIN; assay: Pre-emergence action against MATIN, 1280 g/ha; type: in vivo, Tripleurospermum inodorum (Matricaria inodora); details: scored visually after about 3 weeks vs untreated controls (100% = plants have died)
Procedure, shortened: as §2

[10] = test system: AMARE; assay: Pre-emergence action against AMARE, 1280 g/ha; type: in vivo, Amaranthus retroflexus; details: scored visually after about 3 weeks vs untreated controls (100% = plants have died)
Procedure, shortened: as §2

[11] = test system: AMARE; assay: Pre-emergence action at 320 g/ha against AMARE; type: in vivo, Amaranthus retroflexus; details: visual scoring after about 3 weeks vs untreated controls
Procedure, shortened: as §1

[12] = test system: POAAN; assay: Pre-emergence action against POAAN, 1280 g/ha; type: in vivo, Poa annua; details: visual scoring after about 3 weeks vs untreated controls, 100% = plants have died, 0% = like control plants
Procedure, shortened: as §2

[13] = test system: POLCO; assay: Post-emergence action at 320 g/ha against POLCO; type: in vivo, Fallopia convolvulus (Polygonum convolvulus); details: visual rating about 3 weeks after treatment vs untreated controls
Procedure, shortened: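 Weeds were sown in sandy loam, grown in a greenhouse and sprayed at the one-leaf stage, 2 to 3 weeks after sowing, with WP or EC formulations as aqueous suspension or emulsion plus 0.5% additive at 600 l/ha water. Activity was rated visually after about 3 weeks against untreated controls (100% = plants dead, 0% = like control).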

[14] = test system: POAAN; assay: Post-emergence action against POAAN, 1.28 kg/ha; type: in vivo, Poa annua; details: dosage 1280 g/ha, visual rating about 3 weeks after treatment vs untreated controls
Procedure, shortened: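 Greenhouse-grown weeds (sandy loam, twin-sown pots) were treated 2–3 weeks post-sowing at one leaf. The spray was an aqueous WP/EC preparation plus 0.5% additive, applied at 600 L/ha. Scoring was visual at ~3 weeks, 0–100% versus untreated controls.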

[15] = Tripleurospermum inodorum, 504 h

SMILES | Pre-emergence action against SETVI in % [1] [%] | Pre-emergence action against STEME [2] [%] | Pre-emergence action against ECHCG [3] [%] | Pre-emergence action against SETVI [4] [%] | Pre-emergence action against POLCO in % [5] [%] | Pre-emergence action against MATIN in % [6] [%] | Pre-emergence action against DIGSA in % [7] [%] | Pre-emergence action at 320 g/ha against ALOMY in % [8] [%] | Pre-emergence action against MATIN [9] [%] | Pre-emergence action against AMARE [10] [%] | Pre-emergence action against AMARE in % [11] [%] | Pre-emergence action against POAAN [12] [%] | Post-emergence action against POLCO in % [13] [%] | Post-emergence action against POAAN [14] [%] | other results
C=CCNC(=O)COc1nn(-c2ccccc2F)c(-c2ccc(F)nc2)c1Br [Example X-001, N-Allyl-2-{[4-bromo-1-(2-fluorophenyl)-5-(6-fluoropyridin-3-yl)-1H-pyrazol-3-yl]oxy}acetamide] | – | – | – | – | – | – | – | – | – | – | – | – | – | – | pest or weed control at 320 g/ha ([1]; Setaria viridis, 504 h): 100%; pest or weed control at 1280 g/ha ([2]; Stellaria media, 504 h): 100%; pest or weed control at 1280 g/ha ([3]; Echinochloa crus-galli, 504 h): 100%; pest or weed control at 1280 g/ha ([4]; Setaria viridis, 504 h): 100%; pest or weed control at 320 g/ha ([5]; Fallopia convolvulus, 504 h): 90%; pest or weed control at 320 g/ha [6, 15]: 90%; pest or weed control at 320 g/ha ([7]; Digitaria sanguinalis, 504 h): 100%; pest or weed control at 320 g/ha ([8]; Alopecurus myosuroides, 504 h): 100%; pest or weed control at 1280 g/ha [9, 15]: 90%; pest or weed control at 1280 g/ha ([10]; Amaranthus retroflexus, 504 h): 100%; pest or weed control at 320 g/ha ([11]; Amaranthus retroflexus, 504 h): 90%; pest or weed control at 1280 g/ha ([12]; Poa annua, 504 h): 100%; pest or weed control at 320 g/ha ([13]; Fallopia convolvulus, 504 h): 80%; pest or weed control at 1280 g/ha ([14]; Poa annua, 504 h): 100%
COC(=O)CNC(=O)COc1nn(-c2ccccc2F)c(-c2ccc(F)nc2)c1Br [Example X-002] | 100 | 100 | 90 | 100 | 100 | 100 | 100 | 100 | 90 | 100 | 100 | 100 | 90 | 100 | –
CS(=O)(=O)NC(=O)COc1nn(-c2ccccc2F)c(-c2ccc(F)nc2)c1Br [Example X-004] | 100 | 100 | 100 | 100 | 90 | 90 | 100 | 100 | 100 | 100 | 90 | 100 | 80 | 100 | –
CN(C)S(=O)(=O)NC(=O)COc1nn(-c2ccccc2F)c(-c2ccc(F)nc2)c1Br [Example X-005] | 100 | 100 | 100 | 100 | 90 | 100 | 100 | 100 | 100 | 100 | 100 | 100 | 80 | 100 | –
